We go through 23 compounds from patent publication US20230011869A1 (Hoffmann-La Roche Inc., priority 2018, published 2023).

Counter-ions that a name gives are not always drawn.

In the first experiment the test system is Acinetobacter baumannii ATCC17978. Briefly: Antimicrobial susceptibility testing: 90% growth inhibitory concentration (IC90) determination, Iso-Sensitest broth. As to conditions: 90% growth inhibitory concentration, Acinetobacter baumannii ATCC17978, Iso-Sensitest broth, OD 600 nm over 16 h; read-out: ATCC17978 IC90. It is filed as cell-based. In a few lines:
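A. baumannii ATCC17978 grown in Iso-Sensitest broth across 10 compound concentrations at 35±2 °C.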
Regarding `Cc1cc(Nc2nccn3c(-c4ccc(OS(C)(=O)=O)c(F)c4F)cnc23)ccc1C(=O)N1CCN(C(=O)C2CCNCC2)CC1` [Example 446, [2,3-difluoro-4-[8-[3-methyl-4-[4-(piperidine-4-carbonyl)piperazine-1-carbonyl]anilino]imidazo[1,2-a]pyrazin-3-yl]phenyl] methanesulfonate], the IC90 was 2000 nM.

On to `Cc1cc(Nc2nccn3c(-c4ccc(OCC#N)c(F)c4F)cnc23)ccc1C(=O)N1CCN(C(=O)N2CCN[C@@H](C(=O)O)C2)CC1` [Example 450, (2R)-4-[4-[4-[[3-[4-(cyanomethoxy)-2,3-difluorophenyl]imidazo[1,2-a]pyrazin-8-yl]amino]-2-methylbenzoyl]piperazine-1-carbonyl]piperazine-2-carboxylic acid], for which the IC90 was determined as 2400 nM.

For `CCc1cc(Nc2nccn3c(-c4ccc(OS(C)(=O)=O)c(F)c4F)cnc23)ccc1C(=O)N1CCN(C(=O)C2CCNCC2)CC1` [Example 451, [4-[8-[3-ethyl-4-[4-(piperidine-4-carbonyl)piperazine-1-carobnyl]anilino]imidazo[1,2-a]pyrazin-3-yl]-2,3-difluorophenyl] methanesulfonate; formic acid], the IC90 was determined as 2700 nM.

With `Cc1cc(Nc2nccn3c(-c4ccc(O[C@@H](C)C#N)c(F)c4F)cnc23)ccc1C(=O)N1CCN(C(=O)[C@@H]2C[C@](C)(O)CN2)CC1` [Example 459, (2S)-2-[2,3-difluoro-4-[8-[4-[4-[(2S,4S)-4-hydroxy-4-methylpyrrolidine-2-carbonyl]piperazine-1-carbonyl]-3-methylanilino]imidazo[1,2-a]pyrazin-3-yl]phenoxy]propanenitrile; for-mic acid], the IC90 came out at 82 nM.

For the compound `Cc1cc(Nc2nccn3c(-c4ccc(O[C@@H](C)C#N)c(F)c4F)cnc23)ccc1C(=O)N1CCN(C(=O)C2(O)CCNCC2)CC1` [Example 467, (2S)-2-[2,3-difluoro-4-[8-[4-[4-(4-hydroxypiperidine-4-carbonyl)piperazine-1-carbonyl]-3-methylanilino]imidazo[1,2-a]pyrazin-3-yl]phenoxy]propanenitrile; for-mic acid], the IC90 was determined as 180 nM.

`Cc1cc(Nc2nccn3c(-c4ccc(O[C@@H](C)C#N)c(F)c4F)cnc23)ccc1C(=O)N1CCN(C(=O)[C@@H]2C[C@@H](O)CN2)CC1` [Example 468, (2S)-2-[2,3-difluoro-4-[8-[4-[4-[(2S,4R)-4-hydroxypyrrolidine-2-carbonyl]piperazine-1-carbonyl]-3-methylanilino]imidazo[1,2-a]pyrazin-3-yl]phenoxy]propanenitrile; for-mic acid]: the IC90 turned out to be 200 nM.

As to `Cc1cc(Nc2nccn3c(-c4ccc(OCC#N)c(F)c4Cl)cnc23)ccc1C(=O)N1CCC(C(=O)OC[C@H]2CNCCN2)CC1` [Example 469, [(2R)-piperazin-2-yl]methyl 1-[4-[[3-[2-chloro-4-(cyanomethoxy)-3-fluorophenyl]imidazo[1,2-a]pyrazin-8-yl]amino]-2-methylbenzoyl]piperidine-4-carboxylate], the IC90 amounted to 88 nM.

Turning to `COc1ccc(-c2cnc3c(Nc4ccc(C(=O)N5CCN(C(=O)[C@@H]6C[C@@H](O)CN6)CC5)c(C)c4)nccn23)c(F)c1F` [Example 471, [4-[[3-(2,3-difluoro-4-methoxyphenyl)imidazo[1,2-a]pyrazin-8-yl]amino]-2-methylphenyl]-[4-[(2S,4R)-4-hydroxypyrrolidine-2-carbonyl]piperazin-1-yl]methanone], the IC90 is 96 nM.

The same experiment, now with this note: Acinetobacter baumannii, ATCC17978, 16 h, read-out: ATCC17978 IC90, 90% growth inhibitory concentration, Acinetobacter baumannii ATCC17978, Iso-Sensitest broth, OD 600 nm over 16 h.
Turning to `Cc1cc(Nc2nccn3c(-c4ccc(OC(F)F)cc4)cnc23)ccc1C(=O)N1CCN(C(=O)C2=CCNCC2)CC1` [Example 447, [4-[[3-[4-(difluoromethoxy)phenyl]imi-dazo[1,2-a]pyrazin-8-yl]amino]-2-methylphenyl]-[4-(1,2,3,6-tetrahydropyridine-4-carbonyl)piperazin-1-yl]methanone; hydrochloride], the IC90 was 2000 nM.

As to `Cc1cc(Nc2nccn3c(-c4ccc(OC(F)F)cc4)cnc23)ccc1C(=O)N1CCN(C(=O)[C@@H](N)CC(=O)O)CC1` [Example 448, (3S)-3-amino-4-[4-[4-[[3-[4-(difluoromethoxy)phenyl]imi-dazo[1,2-a]pyrazin-8-yl]amino]-2-methylbenzoyl]piperazin-1-yl]-4-oxobutanoic acid; hydrochloride], the IC90 is 2200 nM.

Consider `Cc1cc(Nc2nccn3c(-c4ccc(OC(F)F)cc4)cnc23)ccc1C(=O)N1CCN(C(=O)[C@@H](N)CCCCN)CC1` [Example 452, (2S)-2,6-diamino-1-[4-[4-[[3-[4-(difluoromethoxy)phenyl]imi-dazo[1,2-a]pyrazin-8-yl]amino]-2-methylbenzoyl]piperazin-1-yl]hexan-1-one; hydrochloride], for which the IC90 was found to be 3600 nM.

`Cc1cc(Nc2nccn3c(-c4ccc(OS(C)(=O)=O)c(F)c4F)cnc23)ccc1C(=O)N1CCN(C(=O)[C@@H]2C[C@@H](O)CN2)CC1` [Example 453, [2,3-difluoro-4-[8-[4-[4-[(2S,4R)-4-hydroxypyrrolidine-2-carbonyl]piperazine-1-carbonyl]-3-methylanilino]imidazo[1,2-a]pyrazin-3-yl]phenyl] methanesulfonate; formic acid]: the IC90 was 4200 nM.

`CCc1cc(Nc2nccn3c(-c4ccc(OS(C)(=O)=O)c(F)c4F)cnc23)ccc1C(=O)N1CCN(C(=O)[C@@H]2C[C@@H](O)CN2)CC1` [Example 454, [4-[8-[3-ethyl-4-[4-[(2S,4R)-4-hydroxypyrrolidine-2-carbonyl]piperazine-1-carbonyl]anilino]imidazo[1,2-a]pyrazin-3-yl]-2,3-difluorophenyl] methanesulfonate; formic acid]: the IC90 was found to be 4700 nM.

On to `CC[C@@]1(O)CN[C@H](C(=O)N2CCN(C(=O)c3ccc(Nc4nccn5c(-c6ccc(OC)c(F)c6F)cnc45)cc3C)CC2)C1` [Example 456, [4-[[3-(2,3-difluoro-4-methoxyphenyl)imidazo[1,2-a]pyrazin-8-yl]amino]-2-methylphenyl]-[4-[(2S,4S)-4-ethyl-4-hydroxypyrrolidine-2-carbonyl]piperazin-1-yl]methanone; formic acid], for which the IC90 is 68 nM.

For the compound `CCc1cc(Nc2nccn3c(-c4ccc(OCC#N)c(F)c4F)cnc23)ccc1C(=O)NCCNC(=O)[C@@H]1C[C@@H](O)CN1` [Example 457, (2S,4R)-N-[2-[[4-[[3-[4-(cyanomethoxy)-2,3-difluorophenyl]imidazo[1,2-a]pyrazin-8-yl]amino]-2-ethylbenzoyl]amino]ethyl]-4-hydroxypyrrolidine-2-carboxamide; formic acid], the IC90 stood at 80 nM.

With `COc1ccc(-c2cnc3c(Nc4ccc(C(=O)N5CCN(C(=O)[C@H]6CCNC6)CC5)c(C)c4)nccn23)c(F)c1F` [Example 460, [4-[[3-(2,3-difluoro-4-methoxyphenyl)imidazo[1,2-a]pyrazin-8-yl]amino]-2-methylphenyl]-[4-[(3S)-pyrrolidine-3-carbonyl]piperazin-1-yl]methanone; hydrochloride], the IC90 was found to be 83 nM.

Regarding `Cc1cc(Nc2nccn3c(-c4ccc(OC(F)F)cc4)cnc23)ccc1C(=O)N1CCN(C(=O)[C@@H]2C[C@](C)(O)CN2)CC1` [Example 462, [4-[[3-[4-(difluoromethoxy)phenyl]imi-dazo[1,2-a]pyrazin-8-yl]amino]-2-methylphenyl]-[4-[(2S,4S)-4-hydroxy-4-methylpyrrolidine-2-carbonyl]piperazin-1-yl]methanone; formic acid], the IC90 was 110 nM.

For `CC[C@]1(O)CN[C@H](C(=O)N2CCN(C(=O)c3ccc(Nc4nccn5c(-c6ccc(OC)c(F)c6F)cnc45)cc3C)CC2)C1` [Example 465, [4-[[3-(2,3-difluoro-4-methoxyphenyl)imidazo[1,2-a]pyrazin-8-yl]amino]-2-methylphenyl]-[4-[(2S,4R)-4-ethyl-4-hydroxypyrrolidine-2-carbonyl]piperazin-1-yl]methanone; formic acid], the IC90 came out at 170 nM.

For the compound `Cc1cc(Nc2nccn3c(-c4ccc(OCC#N)c(F)c4Cl)cnc23)ccc1C(=O)N1CCC(C(=O)OC[C@@H]2CNCCN2)CC1` [Example 470, formic acid; [(2S)-piperazin-2-yl]methyl 1-[4-[[3-[2-chloro-4-(cyanomethoxy)-3-fluorophenyl]imidazo[1,2-a]pyrazin-8-yl]amino]-2-methylbenzoyl]piperidine-4-carboxylate], the IC90 stood at 92 nM.

In the case of `Cc1cc(Nc2nccn3c(-c4ccc(OCC#N)c(F)c4F)cnc23)ccc1C(=O)N1CCC(C(=O)OC[C@@H]2CNCCN2)CC1` [Example 473, formic acid; [(2S)-piperazin-2-yl]methyl 1-[4-[[3-[4-(cyanomethoxy)-2,3-difluorophenyl]imidazo[1,2-a]pyrazin-8-yl]amino]-2-methylbenzoyl]piperidine-4-carboxylate], the IC90 was 300 nM.

For the compound `COc1ccc(-c2cnc3c(Nc4ccc(C(=O)N5CCN(C(=O)[C@@H]6CCNC6)CC5)c(C)c4)nccn23)c(Cl)c1F` [Example 474, [4-[[3-(2-chloro-3-fluoro-4-methoxyphenyl)imidazo[1,2-a]pyrazin-8-yl]amino]-2-methylphenyl]-[4-[(3R)-pyrrolidine-3-carbonyl]piperazin-1-yl]methanone; formic acid], the IC90 was 94 nM.

Turning to `COc1ccc(-c2cnc3c(Nc4ccc(C(=O)N5CCN(C(=O)NCCN)CC5)c(C)c4)nccn23)c(F)c1F` [Example 475, N-(2-aminoethyl)-4-[4-[[3-(2,3-difluoro-4-methoxyphenyl)imidazo[1,2-a]pyrazin-8-yl]amino]-2-methylbenzoyl]piperazine-1-carboxamide; formic acid], the IC90 worked out at 97 nM.

In the case of `COc1ccc(-c2cnc3c(Nc4ccc(C(=O)N5CCN(C(=O)[C@@H]6C[C@@H](O)CN6)CC5)c(C)c4)nccn23)c(Cl)c1F` [Example 476, [4-[[3-(2-chloro-3-fluoro-4-methoxyphenyl)imidazo[1,2-a]pyrazin-8-yl]amino]-2-methylphenyl]-[4-[(2S,4R)-4-hydroxypyrrolidine-2-carbonyl]piperazin-1-yl]methanone; formic acid], the IC90 was 100 nM.
